According to the NIST ThermoML archive (doi:10.1016/j.jct.2014.12.006):
± gives the expanded uncertainty stated by the source.

Assay: mn = molality of the nth substance listed, in mol/kg
Conditions: 298.15 K, 102 kPa, Liquid, Vibrating tube method

CCCCCCCCCCCC[N+](C)(C)CC[N+](C)(C)CCCCCCCCCCCC.[Br-].[Br-] [1,2-bis(dimethyldodecylammonium)ethane dibromide] + O
Conditions	mass density [kg/m3]
m1 = 0.0005	997.078 ± 0.12
m1 = 0.00056	997.083 ± 0.12
m1 = 0.00065	997.091 ± 0.12
m1 = 0.0007	997.095 ± 0.12
m1 = 0.00079	997.103 ± 0.12
m1 = 0.00089	997.112 ± 0.12
m1 = 0.00095	997.117 ± 0.12
m1 = 0.00104	997.124 ± 0.12
m1 = 0.00107	997.126 ± 0.12
m1 = 0.00119	997.136 ± 0.12
m1 = 0.0013	997.144 ± 0.12
m1 = 0.00142	997.153 ± 0.12
m1 = 0.00168	997.172 ± 0.12

CCCCCCCCCCCCn1cc[n+](C)c1.[Br-] [1-dodecyl-3-methylimidazolium bromide] + O
Conditions	mass density [kg/m3]
m1 = 0.00525	997.226 ± 0.12
m1 = 0.00574	997.243 ± 0.12
m1 = 0.00615	997.258 ± 0.12
m1 = 0.007	997.288 ± 0.12
m1 = 0.00733	997.299 ± 0.12
m1 = 0.00816	997.329 ± 0.12
m1 = 0.00869	997.347 ± 0.12
m1 = 0.0092	997.365 ± 0.12
m1 = 0.01006	997.396 ± 0.12
m1 = 0.01063	997.412 ± 0.12
m1 = 0.01124	997.43 ± 0.12
m1 = 0.01196	997.451 ± 0.12
m1 = 0.01274	997.474 ± 0.12
m1 = 0.01356	997.498 ± 0.12
m1 = 0.01464	997.529 ± 0.12
m1 = 0.01526	997.545 ± 0.12
m1 = 0.01629	997.575 ± 0.12
m1 = 0.01707	997.595 ± 0.12
